The subject of experiment [1] is LN229 cells harboring the A72S mutation (PTPN11 A72S). The experiment is described as follows: LN229 tumor xenograft model, SOS1 inhibitor - MEK inhibitor combination. In kind it is in vivo, nude/nude mice. Conditions: for tumor growth inhibition: LN229 tumors, day 28, single agent, MRTX0902 50 mg/kg twice daily, VS-6766 0.3 mg/kg twice daily Monday, Wednesday, Friday; for Average Tumor Volumes of LN229 Tumor Bearing Mice: p.o., MRTX0902 50 mg/kg BID, VS-6766 0.3 mg/kg BID MWF (Q2D), mean of 5 mice. The method, then:
Immunocompromised nude/nude mice are inoculated in the right hind flank with LN229 cells harboring the A72S mutation. When tumor volumes reach approximately 150 mm3 in size, the mice are divided into four groups of 5 mice each. The first group is administered vehicle only. […] The fourth group is administered the single agent dose of the SOS1 inhibitor in combination with the single agent dose of the MEK inhibitor. The treatment period was 28 days. Tumor volumes are measured using a caliper every two—three days and tumor volumes are calculated by the formula: 0.5×(Length×Width)2.
[0153]20 nude/nude mice were inoculated in the right hind limb with 5×10^6 LN229 cells. When tumor volume reached ˜150 mm3 (Study Day 0), 5 mice in each of the four groups were administered p.o. daily for 28 days: vehicle only (0.5% MC (4000 cps)/0.2% Tween80 in water), 50 mg/kg BID of the SOS1 inhibitor (R)-2-methyl-3-(1-((4-methyl-7-morpholinopyrido[3,4-d]pyridazin-1-yl)amino)ethyl)benzonitrile (MRTX0902) (0.5% MC (4000 cps)/0.2% Tween80 in water), 0.3 mg/kg BID Q2D of MEK inhibitor VS-6766 (5% DMSO, 10% HPCD in water), or 50 mg/kg BID MRTX0902 and 0.3 mg/kg BID Q2D. Tumor volumes, measured at pre-specified days, for the five mice per group were averaged and are reported for LN229 cells in Table 1 and FIG. 1.

The test system of experiment [2] is NCI-H1435 cells harboring NF1 K615N mutation. The experiment is described as follows: NCI-H1435 tumor xenograft model, SOS1 inhibitor - MEK inhibitor combination. In kind it is in vivo, nude/nude mice. Conditions: for tumor growth inhibition: NCI-H1435 tumors, day 27, single agent, MRTX0902 50 mg/kg twice daily, VS-6766 0.3 mg/kg twice daily Monday, Wednesday, Friday; for Average Tumor Volumes of NCI-H1435 Tumor Bearing Mice: p.o., MRTX0902 50 mg/kg BID, VS-6766 0.3 mg/kg BID MWF (Q2D), mean of 5 mice. The method, then:
Immunocompromised nude/nude mice are inoculated in the right hind flank with NCI-H1435 cells harboring NF1 K615N mutation. When tumor volumes reach approximately 150 mm3 in size, the mice are divided into four groups of 5 mice each. The first group is administered vehicle only. […] The fourth group is administered a single agent dose of the SOS1 inhibitor in combination with a single agent dose of the MEK inhibitor. The treatment period was 27 days. Tumor volumes are measured using a caliper every two—three days and tumor volumes are calculated by the formula: 0.5×(Length×Width)2.
20 nude/nude mice were inoculated in the right hind limb with 5×10^6 NCI-H1435 cells. When tumor volume reached ˜150 mm3 (Study Day 0), 5 mice in each of the four groups were administered p.o. daily for 27 days: vehicle only (0.5% MC (4000 cps)/0.2% Tween80 in water), 50 mg/kg BID of the SOS1 inhibitor (R)-2-methyl-3-(1-((4-methyl-7-morpholinopyrido[3,4-d]pyridazin-1-yl)amino)ethyl)benzonitrile (MRTX0902) (0.5% MC (4000 cps)/0.2% Tween80 in water), 0.3 mg/kg BID Q2D of MEK inhibitor VS-6766 (5% DMSO, 10% HPCD in water), or 50 mg/kg BID MRTX0902 and 0.3 mg/kg BID Q2D VS-6766. Tumor volumes, measured at pre-specified days, for the five mice per group were averaged and are reported for NCI-H1435 cells in Table 2 and FIG. 2.

As to `Cc1c(C#N)cccc1[C@@H](C)Nc1nnc(C)c2cnc(N3CCOCC3)cc12` [MRTX0902, (R)-2-methyl-3-(1-((4-methyl-7-morpholinopyrido[3,4-d]pyridazin-1-yl)amino)ethyl)benzonitrile], the tumor growth inhibition in experiment [1] came to 37.6%; in experiment [2] it was 49.8%. Besides, the “Average Tumor Volumes of LN229 Tumor Bearing Mice” value in experiment [1] (Study Day 0 (start of dosing)) came out at 151 mm^3; in experiment [1] (Study Day 4), 174 mm^3; in experiment [1] (Study Day 7), 199 mm^3; in experiment [1] (Study Day 12), 248 mm^3; in experiment [1] (Study Day 15), 310 mm^3; in experiment [1] (Study Day 18) it was 374 mm^3. For the same compound, the “Average Tumor Volumes of LN229 Tumor Bearing Mice” value is 462 mm^3 in experiment [1] (Study Day 25) and 525 mm^3 in experiment [1] (Study Day 28). In addition, the “Average Tumor Volumes of NCI-H1435 Tumor Bearing Mice” value in experiment [2] (Study Day 0 (start of dosing)) was determined as 164 mm^3; in experiment [2] (Study Day 3), 241 mm^3; in experiment [2] (Study Day 6), 292 mm^3; in experiment [2] (Study Day 10), 333 mm^3; in experiment [2] (Study Day 13), 417 mm^3; in experiment [2] (Study Day 17), 437 mm^3. In addition, the figures for the “Average Tumor Volumes of NCI-H1435 Tumor Bearing Mice” value in experiment [2] (Study Day 20), in experiment [2] (Study Day 24) and in experiment [2] (Study Day 27) were 474 mm^3, 583 mm^3 and 608 mm^3, respectively.

As for `CNS(=O)(=O)Nc1nccc(Cc2c(C)c3ccc(Oc4ncccn4)cc3oc2=O)c1F` [VS-6766, 3-[[3-fluoro-2-(methylsulfamoylamino)pyridin-4-yl]methyl]-4-methyl-7-pyrimidin-2-yloxychromen-2-one], the tumor growth inhibition in experiment [1] is listed as 92.5%; in experiment [2], 76.4%. Also, the “Average Tumor Volumes of LN229 Tumor Bearing Mice” value is 151 mm^3 in experiment [1] (Study Day 0 (start of dosing)); 143 mm^3 in experiment [1] (Study Day 4); 137 mm^3 in experiment [1] (Study Day 7); 120 mm^3 in experiment [1] (Study Day 12); 140 mm^3 in experiment [1] (Study Day 15); 186 mm^3 in experiment [1] (Study Day 18). Also, the figures for the “Average Tumor Volumes of LN229 Tumor Bearing Mice” value in experiment [1] (Study Day 25) and in experiment [1] (Study Day 28) were 225 mm^3 and 196 mm^3, respectively. For the same compound, the “Average Tumor Volumes of NCI-H1435 Tumor Bearing Mice” value in experiment [2] (Study Day 0 (start of dosing)) is reported as 166 mm^3; in experiment [2] (Study Day 3), 254 mm^3; in experiment [2] (Study Day 6), 296 mm^3; in experiment [2] (Study Day 10) it was 307 mm^3; in experiment [2] (Study Day 13), 281 mm^3; in experiment [2] (Study Day 17), 286 mm^3. For the same compound, the “Average Tumor Volumes of NCI-H1435 Tumor Bearing Mice” value was found to be 322 mm^3 in experiment [2] (Study Day 20), 349 mm^3 in experiment [2] (Study Day 24) and 371 mm^3 in experiment [2] (Study Day 27).
